Laboratory results published in the NIST ThermoML archive (doi:10.1016/j.jct.2015.04.005).
± gives the expanded uncertainty stated by the source.

Experiment: xn = mol fraction of the nth substance listed
Settings: 102.24 kPa, Liquid; for speed of sound: Frequency=5 MHz, Single path-length method; for mass density: Vibrating tube method

CCC(=O)[O-].C[NH2+]CCO [2-hydroxy-N-methylethanaminium propionate] + O gave a speed of sound (318.15 K, x1 = 0.02) of 1637.4 ± 8 m/s, a speed of sound (318.15 K, x1 = 0.0501) of 1726.9 ± 8 m/s and a speed of sound (318.15 K, x1 = 0.1001) of 1780.5 ± 8 m/s. It also gave a speed of sound (318.15 K, x1 = 0.101) of 1773.6 ± 8 m/s, a speed of sound (318.15 K, x1 = 0.2006) of 1768 ± 8 m/s and a speed of sound (318.15 K, x1 = 0.301) of 1733.1 ± 8 m/s. For the same compound, the speed of sound (318.15 K, x1 = 0.3978) was 1698.1 ± 8 m/s, the speed of sound (318.15 K, x1 = 0.4976) was 1665.2 ± 8 m/s and the speed of sound (318.15 K, x1 = 0.5972) was 1658.8 ± 8 m/s. It also gave a speed of sound (318.15 K, x1 = 0.8006) of 1619.5 ± 8 m/s, a speed of sound (318.15 K, x1 = 1) of 1573.2 ± 8.1 m/s and a mass density (318.15 K, x1 = 0.02) of 1003.2 ± 1.7 kg/m3. For the same compound, the mass density (318.15 K, x1 = 0.0501) was 1027.8 ± 1.7 kg/m3, the mass density (318.15 K, x1 = 0.1001) was 1045.2 ± 1.7 kg/m3 and the mass density (318.15 K, x1 = 0.101) was 1043.9 ± 1.7 kg/m3. It also gave a mass density (318.15 K, x1 = 0.2006) of 1060.5 ± 1.7 kg/m3, a mass density (318.15 K, x1 = 0.301) of 1060.2 ± 1.7 kg/m3 and a mass density (318.15 K, x1 = 0.3978) of 1061.8 ± 1.7 kg/m3. The mass density (318.15 K, x1 = 0.4976) was 1059.8 ± 1.7 kg/m3, the mass density (318.15 K, x1 = 0.5972) was 1059.4 ± 1.7 kg/m3 and the mass density (318.15 K, x1 = 0.8006) was 1055.8 ± 1.7 kg/m3. It also gave a mass density (318.15 K, x1 = 1) of 1053 ± 1.7 kg/m3, a speed of sound (323.15 K, x1 = 0.02) of 1639.6 ± 8 m/s and a speed of sound (323.15 K, x1 = 0.0501) of 1722 ± 8 m/s. For the same compound, the speed of sound (323.15 K, x1 = 0.1001) was 1770.4 ± 8 m/s, the speed of sound (323.15 K, x1 = 0.101) was 1762.5 ± 8 m/s and the speed of sound (323.15 K, x1 = 0.2006) was 1753.2 ± 8 m/s. The speed of sound (323.15 K, x1 = 0.301) was 1718.9 ± 8 m/s, the speed of sound (323.15 K, x1 = 0.3978) was 1683.3 ± 8 m/s and the speed of sound (323.15 K, x1 = 0.4976) was 1650 ± 8 m/s. The speed of sound (323.15 K, x1 = 0.5972) was 1643.3 ± 8 m/s, the speed of sound (323.15 K, x1 = 0.8006) was 1603.2 ± 8 m/s and the speed of sound (323.15 K, x1 = 1) was 1558.3 ± 8.1 m/s. For the same compound, the mass density (323.15 K, x1 = 0.02) was 999.8 ± 1.7 kg/m3, the mass density (323.15 K, x1 = 0.0501) was 1025 ± 1.7 kg/m3 and the mass density (323.15 K, x1 = 0.1001) was 1042.4 ± 1.7 kg/m3. It also gave a mass density (323.15 K, x1 = 0.101) of 1040.9 ± 1.7 kg/m3, a mass density (323.15 K, x1 = 0.2006) of 1057.5 ± 1.7 kg/m3 and a mass density (323.15 K, x1 = 0.301) of 1057.1 ± 1.7 kg/m3. For the same compound, the mass density (323.15 K, x1 = 0.3978) was 1058.7 ± 1.7 kg/m3, the mass density (323.15 K, x1 = 0.4976) was 1056.7 ± 1.7 kg/m3 and the mass density (323.15 K, x1 = 0.5972) was 1056.2 ± 1.7 kg/m3. For the same compound, the mass density (323.15 K, x1 = 0.8006) was 1052.6 ± 1.7 kg/m3, the mass density (323.15 K, x1 = 1) was 1049.8 ± 1.7 kg/m3 and the speed of sound (328.15 K, x1 = 0.02) was 1641.9 ± 8 m/s. For the same compound, the speed of sound (328.15 K, x1 = 0.0501) was 1717.1 ± 8 m/s, the speed of sound (328.15 K, x1 = 0.1001) was 1760.3 ± 8 m/s and the speed of sound (328.15 K, x1 = 0.101) was 1751.4 ± 8 m/s. It also gave a speed of sound (328.15 K, x1 = 0.2006) of 1738.3 ± 8 m/s, a speed of sound (328.15 K, x1 = 0.301) of 1704.6 ± 8 m/s and a speed of sound (328.15 K, x1 = 0.3978) of 1668.6 ± 8 m/s. The speed of sound (328.15 K, x1 = 0.4976) was 1634.8 ± 8 m/s, the speed of sound (328.15 K, x1 = 0.5972) was 1627.8 ± 8 m/s and the speed of sound (328.15 K, x1 = 0.8006) was 1587 ± 8 m/s. For the same compound, the speed of sound (328.15 K, x1 = 1) was 1543.7 ± 8.1 m/s, the mass density (328.15 K, x1 = 0.02) was 996.4 ± 1.7 kg/m3 and the mass density (328.15 K, x1 = 0.0501) was 1022.2 ± 1.7 kg/m3. It also gave a mass density (328.15 K, x1 = 0.1001) of 1039.7 ± 1.7 kg/m3, a mass density (328.15 K, x1 = 0.101) of 1037.9 ± 1.7 kg/m3 and a mass density (328.15 K, x1 = 0.2006) of 1054.5 ± 1.7 kg/m3. The mass density (328.15 K, x1 = 0.301) was 1054 ± 1.7 kg/m3, the mass density (328.15 K, x1 = 0.3978) was 1055.6 ± 1.7 kg/m3 and the mass density (328.15 K, x1 = 0.4976) was 1053.6 ± 1.7 kg/m3. It also gave a mass density (328.15 K, x1 = 0.5972) of 1053.1 ± 1.7 kg/m3, a mass density (328.15 K, x1 = 0.8006) of 1049.3 ± 1.7 kg/m3 and a mass density (328.15 K, x1 = 1) of 1046.5 ± 1.7 kg/m3. The speed of sound (333.15 K, x1 = 0.02) was 1644.1 ± 8 m/s, the speed of sound (333.15 K, x1 = 0.0501) was 1712.2 ± 8 m/s and the speed of sound (333.15 K, x1 = 0.1001) was 1750.3 ± 8 m/s. The speed of sound (333.15 K, x1 = 0.101) was 1740.3 ± 8 m/s, the speed of sound (333.15 K, x1 = 0.2006) was 1723.5 ± 8 m/s and the speed of sound (333.15 K, x1 = 0.301) was 1690.4 ± 8 m/s. It also gave a speed of sound (333.15 K, x1 = 0.3978) of 1653.9 ± 8 m/s, a speed of sound (333.15 K, x1 = 0.4976) of 1619.5 ± 8 m/s and a speed of sound (333.15 K, x1 = 0.5972) of 1612.2 ± 8 m/s. The speed of sound (333.15 K, x1 = 0.8006) was 1570.7 ± 8 m/s, the speed of sound (333.15 K, x1 = 1) was 1527 ± 8.1 m/s and the mass density (333.15 K, x1 = 0.02) was 993 ± 1.7 kg/m3. It also gave a mass density (333.15 K, x1 = 0.0501) of 1019.4 ± 1.7 kg/m3, a mass density (333.15 K, x1 = 0.1001) of 1036.9 ± 1.7 kg/m3 and a mass density (333.15 K, x1 = 0.101) of 1035 ± 1.7 kg/m3. For the same compound, the mass density (333.15 K, x1 = 0.2006) was 1051.5 ± 1.7 kg/m3, the mass density (333.15 K, x1 = 0.301) was 1051 ± 1.7 kg/m3 and the mass density (333.15 K, x1 = 0.3978) was 1052.6 ± 1.7 kg/m3. For the same compound, the mass density (333.15 K, x1 = 0.4976) was 1050.5 ± 1.7 kg/m3, the mass density (333.15 K, x1 = 0.5972) was 1050 ± 1.7 kg/m3 and the mass density (333.15 K, x1 = 0.8006) was 1046.1 ± 1.7 kg/m3. For the same compound, the mass density (333.15 K, x1 = 1) was 1043.2 ± 1.7 kg/m3.
